The source of these data is PubChem BioAssay (NCI).

Test systems include CAKI-1 renal; CCRF-CEM leukemia; EKVX NSCLC; HCT-15 colon; HS 578T breast; IGROV1 ovarian; NCI-H226 lung; RPMI-8226 leukemia; RXF 393 renal; UO-31 renal.
What all share (experiment): inhibition of tumour cell growth, NCI panel, 48 h

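Method: 48-hour compound exposure of cells in 96-well plates, five concentrations, linear interpolation of endpoints. Abbreviation: GI50, concentration required for 50% inhibition of growth. At the TGI there is no net growth.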 *1 amine or outer side, *2 acyl side, *3 side chain or, on linkers, in order; H or OH if unused. Where a SMILES comes first, the peptide text is derived from it. Bridges are numbered along the chain shown (N, C = ends). [ ]: non-standard residue; d: D form. The star is where a group is joined. Phe(3-Me) = Cc1cccc(C[C@H](N)C(=O)O)c1; NH(4-Cl-2-F-phenyl) = Fc1cc(Cl)ccc1N*; Pro(4R-Me) = C[C@H]1CN[C@H](C(=O)O)C1; Propanoyl(3-NMe2) = CN(C)CCC(=O)*; Hyp = O=C(O)[C@@H]1C[C@@H](O)CN1; aThr = C[C@H](O)[C@H](N)C(=O)O; Pip = O=C(O)[C@@H]1CCCCN1; CO = O=C([*:1])[*:2] A value given as a limit tells only on which side of the number the result lay.

Take `CN1CCCCC1CCN1c2ccccc2Sc2ccc(S(C)=O)cc21` (centres undefined): the TGI in the assay with CAKI-1 renal, with CCRF-CEM leukemia, in the assay on EKVX NSCLC, in the assay with HCT-15 colon, with HS 578T breast and with IGROV1 ovarian was over 100 µM throughout. Besides, the TGI in the assay on NCI-H226 lung, in the assay on RPMI-8226 leukemia and with RXF 393 renal was over 100 µM throughout.
As for `O=C1c2cccnc2C(=O)c2c1c(C(=O)OCCN1CCOCC1)c1ccccn21`, the GI50 in the assay on CAKI-1 renal is under 0.0184 µM; in the assay on CCRF-CEM leukemia, 0.126 µM; in the assay on EKVX NSCLC, 1.54 µM; with HS 578T breast, 0.0243 µM; in the assay on IGROV1 ovarian, 0.0406 µM; with NCI-H226 lung, under 0.017 µM. Further, the values for the GI50 with RPMI-8226 leukemia, in the assay on RXF 393 renal and in the assay on UO-31 renal were 0.0914 µM, under 0.0187 µM and under 0.01 µM, respectively. Besides, the TGI in the assay with CAKI-1 renal is 14.6 µM; in the assay with CCRF-CEM leukemia it was 6.8 µM; with EKVX NSCLC, 10.1 µM; with HS 578T breast, 10.8 µM; in the assay on IGROV1 ovarian, 9.91 µM; in the assay with NCI-H226 lung, 0.696 µM. The TGI worked out at 4.65 µM in the assay with RPMI-8226 leukemia and 2.91 µM in the assay with RXF 393 renal.
As for `Nc1c(C(=O)Nc2ccccc2)sc2nc3c(cc12)CCCC3`, the GI50 in the assay on CAKI-1 renal is 1.13 µM; in the assay on CCRF-CEM leukemia, 0.374 µM; with HCT-15 colon, 0.436 µM; in the assay with HS 578T breast, 2.73 µM; in the assay on IGROV1 ovarian, 2.64 µM; in the assay with NCI-H226 lung it was 3.31 µM. The values for the GI50 in the assay on RPMI-8226 leukemia, with RXF 393 renal and in the assay on UO-31 renal were 0.681 µM, 0.744 µM and 1.48 µM, respectively. Moreover, the TGI with CAKI-1 renal was over 100 µM; in the assay with CCRF-CEM leukemia it was over 46.5 µM; in the assay with HCT-15 colon, over 100 µM; with HS 578T breast, over 100 µM; in the assay with IGROV1 ovarian, over 100 µM; with NCI-H226 lung it was over 100 µM. For the same compound, the TGI with RPMI-8226 leukemia is 11.5 µM; in the assay on RXF 393 renal it was 8.17 µM; with UO-31 renal it was over 100 µM.
Turning to `Cc1cccc(C[C@H](NC(=O)Nc2ccc(Cl)cc2F)C(=O)N[C@@H]2C(=O)N3C[C@H](OC(=O)CCN(C)C)C[C@H]3C(=O)N3CCCC[C@H]3C(=O)N[C@@H](C)C(=O)N3C[C@H](C)C[C@H]3C(=O)O[C@H]2C)c1` ({NH(4-Cl-2-F-phenyl)-CO}-[Phe(3-Me)][aThr][Hyp](Propanoyl(3-NMe2))[Pip]A[Pro(4R-Me)]; ester 2-C), the GI50 was 0.978 µM in the assay on CAKI-1 renal; 0.47 µM in the assay on CCRF-CEM leukemia; 0.976 µM in the assay on EKVX NSCLC; 1.98 µM with HCT-15 colon; 0.474 µM with HS 578T breast; 0.94 µM in the assay with IGROV1 ovarian. The GI50 was 0.45 µM in the assay with NCI-H226 lung, 0.181 µM in the assay on RPMI-8226 leukemia, 1.23 µM in the assay on RXF 393 renal and 2.17 µM in the assay on UO-31 renal. Besides, the TGI with CAKI-1 renal is 3.59 µM; in the assay with CCRF-CEM leukemia, 7.81 µM; in the assay with EKVX NSCLC it was 6.25 µM; in the assay on HCT-15 colon, 4.34 µM; with HS 578T breast, 3.82 µM; with IGROV1 ovarian, 2.46 µM. Also, the TGI amounted to 2.19 µM in the assay with NCI-H226 lung, 1.88 µM in the assay with RPMI-8226 leukemia, 2.85 µM in the assay with RXF 393 renal and 7.13 µM with UO-31 renal.
`COc1ccc(-c2coc3cc(OC)cc(O)c3c2=O)cc1`: the TGI with CAKI-1 renal, in the assay with CCRF-CEM leukemia, with EKVX NSCLC, in the assay on HCT-15 colon, in the assay on HS 578T breast and in the assay on IGROV1 ovarian was over 100 µM in each case. Moreover, the TGI in the assay on NCI-H226 lung is over 100 µM; in the assay with RPMI-8226 leukemia it was over 100 µM; with RXF 393 renal, 83.1 µM.
Take `CNC1C(OC2C(OC3C(O)C(O)C(O)C(O)C3O)OC(C)C2(O)CO)OC(CO)C(O)C1O` (centres undefined) (tested in a mixture with another compound): the TGI in the assay with CCRF-CEM leukemia, with EKVX NSCLC, in the assay with HCT-15 colon, in the assay with HS 578T breast, in the assay on IGROV1 ovarian and in the assay with NCI-H226 lung was over 100 µM throughout. Moreover, the TGI in the assay on RPMI-8226 leukemia, in the assay on RXF 393 renal and in the assay with UO-31 renal was over 100 µM in each case.
For `Cc1ccc(NC(=O)c2nc(S(C)=O)oc2-c2ccc(F)cc2)cc1Nc1nccc(-c2cccnc2)n1` (centres undefined), the GI50 in the assay with CCRF-CEM leukemia is 1.58 µM; in the assay with EKVX NSCLC, 2.62 µM; with HS 578T breast it was 2.96 µM; with IGROV1 ovarian, 1.89 µM; with NCI-H226 lung, 3.84 µM; with RPMI-8226 leukemia, 2.43 µM. In addition, the values for the GI50 in the assay on RXF 393 renal and in the assay with UO-31 renal were 1.86 µM and 1.73 µM, respectively. Moreover, the TGI in the assay on CCRF-CEM leukemia turned out to be 6.83 µM; with EKVX NSCLC, 6.65 µM; with HS 578T breast, 8.94 µM; in the assay on IGROV1 ovarian it was 3.85 µM; in the assay with NCI-H226 lung it was 25.8 µM; in the assay on RPMI-8226 leukemia it was 6.5 µM. In addition, the TGI was 3.46 µM in the assay on RXF 393 renal and 3.14 µM with UO-31 renal.
In the case of `CSc1nc2c(c(=O)[nH]1)C(c1ccc(Cl)cc1)C1=C(N2)/C(=C/c2ccc(Cl)cc2)CNC1` (centres undefined), the GI50 was 2.11 µM in the assay with CAKI-1 renal; 2.55 µM in the assay with CCRF-CEM leukemia; 2.04 µM with HCT-15 colon; 3.6 µM in the assay on HS 578T breast; 2.56 µM in the assay on IGROV1 ovarian; 1.62 µM in the assay on NCI-H226 lung. In addition, the GI50 is 0.629 µM in the assay with RPMI-8226 leukemia, 1.65 µM in the assay on RXF 393 renal and 1.43 µM in the assay on UO-31 renal. Besides, the TGI in the assay on CAKI-1 renal stood at 5.09 µM; with CCRF-CEM leukemia, 8.99 µM; with HCT-15 colon, 5.54 µM; in the assay on HS 578T breast it was 84.1 µM; in the assay with IGROV1 ovarian, 7.04 µM; in the assay with NCI-H226 lung, 3.27 µM. Besides, the TGI stood at 3.14 µM in the assay with RPMI-8226 leukemia, 3.42 µM in the assay on RXF 393 renal and 2.91 µM with UO-31 renal.
Turning to `C[n+]1ccc(-c2c3nc(c(-c4ccc5c(ccc[n+]5C)c4)c4ccc([nH]4)c(-c4cc[n+](C)cc4)c4nc(c(-c5ccc6c(ccc[n+]6C)c5)c5ccc2[nH]5)C=C4)C=C3)cc1`, the GI50 with CAKI-1 renal was over 50 µM; in the assay on CCRF-CEM leukemia, over 50 µM; in the assay on EKVX NSCLC it was over 50 µM; with HCT-15 colon, over 50 µM; with HS 578T breast, 42.4 µM; in the assay on IGROV1 ovarian, over 50 µM. Moreover, the values for the GI50 in the assay with RPMI-8226 leukemia, with RXF 393 renal and with UO-31 renal were over 50 µM, 13.9 µM and 19.9 µM, respectively. The TGI in the assay on CAKI-1 renal, with CCRF-CEM leukemia, in the assay on EKVX NSCLC, in the assay with HCT-15 colon, in the assay with HS 578T breast and in the assay with IGROV1 ovarian was over 50 µM each time. Further, the TGI in the assay with RPMI-8226 leukemia, in the assay on RXF 393 renal and in the assay on UO-31 renal was over 50 µM in each case.
